Test results taken from ChEMBL document CHEMBL3774354, “Discovery of Selective Histone Deacetylase 6 Inhibitors Using the Quinazoline as the Cap for the Treatment of Cancer” (J Med Chem, 2016).
pIC50: −log10 of the molar value. The source made the active and inactive calls. No cut-off for these calls is given here.

Columns and labels:
Histone deacetylase 9 = Histone deacetylase 9 (Homo sapiens, UniProt Q9UKV0); experiment: Inhibition of recombinant HDAC9 (unknown origin) using AMC labeled AC-peptide as substrate at 10 uM incubated for 1 hr by fluorescence analysis
Mus musculus [1] = experiment: Toxicity in Balb/c nude mouse xenografted with human HCT116 cells assessed as death at 50 mg/kg, iv q2d for 9 days; type: organism-based, HCT-116; conditions: in vivo, 216 h
[2] = molecular target: Histone deacetylase 7 (Homo sapiens) (UniProt Q8WUI4); experiment: Inhibition of recombinant HDAC7 (unknown origin) using AMC labeled AC-peptide as substrate at 10 uM incubated for 1 hr by fluorescence analysis
[3] = Antitumor activity against human HCT116 cells xenografted in Balb/c nude mouse assessed as tumor mass change at 50 mg/kg, iv q2d for 9 days; type: functional, HCT-116
K562 = experiment: Cytotoxicity against human K562 cells after 72 hrs by MTT assay; type: functional, cell-based; conditions: K562, 72 h
HT-29 = experiment: Cytotoxicity against human HT-29 cells after 72 hrs by MTT assay; type: functional, cell-based; conditions: HT-29, 72 h
MV4-11 = experiment: Antitumor activity against human MV4-11 cells xenografted in NOD/SCID mouse assessed as tumor mass change at 50 mg/kg, iv q2d for 12 days; type: functional
Mus musculus [4] = experiment: Toxicity in NOD/SCID mouse xenografted with human MV4-11 cells assessed as change in body weight at 50 mg/kg, iv q2d for 12 days; type: organism-based; conditions: in vivo, 288 h
Mus musculus [5] = experiment: Toxicity in Balb/c nude mouse xenografted with human HCT116 cells assessed as change in body weight at 50 mg/kg, iv q2d for 9 days; type: organism-based, HCT-116; conditions: in vivo, 216 h
[6] = Cmax in Sprague-Dawley rat at 12 mg/kg, iv administered by bolus injection measured up to 24 hrs by LC-MS/MS analysis; type: ADME, organism-based; parameters: dose 12 mg/kg, route intravenous; conditions: in vivo
Rattus norvegicus = experiment: Volume of distribution at steady state in Sprague-Dawley rat at 12 mg/kg, po measured up to 24 hrs by LC-MS/MS analysis; type: ADME, organism-based; conditions: in vivo
[7] = Antitumor activity against human HCT116 cells xenografted in Balb/c nude mouse assessed as tumor mass change at 25 mg/kg, po q2d for 8 days; type: functional, HCT-116
Ramos [8] = experiment: Antitumor activity against human Ramos cells xenografted in NOD/SCID mouse assessed as tumor mass change at 80 mg/kg, po q2d for 6 days; type: functional
Ramos [9] = experiment: Antitumor activity against human Ramos cells xenografted in orally dosed NOD/SCID mouse assessed as tumor mass reduction administered as q2d for 6 days; type: functional, organism-based
Histone deacetylase 5 = Histone deacetylase 5 (Homo sapiens, UniProt Q9UQL6); experiment: Inhibition of recombinant HDAC5 (unknown origin) using AMC labeled AC-peptide as substrate at 10 uM incubated for 1 hr by fluorescence analysis
A2780 = experiment: Cytotoxicity against human A2780 cells after 72 hrs by MTT assay; type: functional, cell-based; conditions: A2780, 72 h
Histone deacetylase 4 = Histone deacetylase 4 (Homo sapiens, UniProt P56524); experiment: Inhibition of recombinant HDAC4 (unknown origin) using AMC labeled AC-peptide as substrate incubated for 1 hr by fluorescence analysis
[10] = molecular target: Histone deacetylase 11 (Homo sapiens) (UniProt Q96DB2); experiment: Inhibition of recombinant HDAC11 (unknown origin) using AMC labeled AC-peptide as substrate at 10 uM incubated for 1 hr by fluorescence analysis
[11] = Cmax in Sprague-Dawley rat at 12 mg/kg, po measured up to 24 hrs by LC-MS/MS analysis; type: ADME, organism-based; parameters: dose 12 mg/kg, route oral; conditions: in vivo
Mus musculus [12] = experiment: Toxicity in NOD/SCID mouse xenografted with human MV4-11 cells assessed as death at 50 mg/kg, iv q2d for 12 days; type: organism-based; conditions: in vivo, 288 h

Sequence of Histone deacetylase 9 (Q9UKV0 whole entry): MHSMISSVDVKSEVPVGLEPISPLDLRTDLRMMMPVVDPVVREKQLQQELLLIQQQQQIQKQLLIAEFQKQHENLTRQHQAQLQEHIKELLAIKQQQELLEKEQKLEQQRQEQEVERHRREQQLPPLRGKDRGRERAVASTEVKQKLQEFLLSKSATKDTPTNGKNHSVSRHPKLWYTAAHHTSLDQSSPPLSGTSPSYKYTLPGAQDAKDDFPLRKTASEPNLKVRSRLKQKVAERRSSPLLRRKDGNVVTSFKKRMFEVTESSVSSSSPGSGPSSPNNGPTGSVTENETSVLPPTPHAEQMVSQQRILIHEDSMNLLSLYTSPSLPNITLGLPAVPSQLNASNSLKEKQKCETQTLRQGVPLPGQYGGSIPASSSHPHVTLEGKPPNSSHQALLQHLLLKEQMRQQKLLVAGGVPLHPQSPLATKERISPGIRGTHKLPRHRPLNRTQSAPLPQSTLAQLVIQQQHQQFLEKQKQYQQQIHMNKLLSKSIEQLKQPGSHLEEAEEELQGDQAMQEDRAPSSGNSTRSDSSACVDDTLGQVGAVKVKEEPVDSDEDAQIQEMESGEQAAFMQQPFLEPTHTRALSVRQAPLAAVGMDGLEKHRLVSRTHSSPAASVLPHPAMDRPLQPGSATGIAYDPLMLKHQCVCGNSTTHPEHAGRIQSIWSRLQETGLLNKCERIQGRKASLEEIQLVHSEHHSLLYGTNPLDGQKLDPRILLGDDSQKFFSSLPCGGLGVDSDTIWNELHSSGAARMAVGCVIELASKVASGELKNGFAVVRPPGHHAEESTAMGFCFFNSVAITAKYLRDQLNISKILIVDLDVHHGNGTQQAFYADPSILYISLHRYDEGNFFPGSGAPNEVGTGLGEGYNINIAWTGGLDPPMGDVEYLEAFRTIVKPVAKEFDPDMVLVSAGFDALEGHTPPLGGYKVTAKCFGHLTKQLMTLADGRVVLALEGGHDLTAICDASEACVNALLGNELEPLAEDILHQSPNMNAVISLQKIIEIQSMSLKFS
Sequence of Histone deacetylase 4 (P56524 whole entry): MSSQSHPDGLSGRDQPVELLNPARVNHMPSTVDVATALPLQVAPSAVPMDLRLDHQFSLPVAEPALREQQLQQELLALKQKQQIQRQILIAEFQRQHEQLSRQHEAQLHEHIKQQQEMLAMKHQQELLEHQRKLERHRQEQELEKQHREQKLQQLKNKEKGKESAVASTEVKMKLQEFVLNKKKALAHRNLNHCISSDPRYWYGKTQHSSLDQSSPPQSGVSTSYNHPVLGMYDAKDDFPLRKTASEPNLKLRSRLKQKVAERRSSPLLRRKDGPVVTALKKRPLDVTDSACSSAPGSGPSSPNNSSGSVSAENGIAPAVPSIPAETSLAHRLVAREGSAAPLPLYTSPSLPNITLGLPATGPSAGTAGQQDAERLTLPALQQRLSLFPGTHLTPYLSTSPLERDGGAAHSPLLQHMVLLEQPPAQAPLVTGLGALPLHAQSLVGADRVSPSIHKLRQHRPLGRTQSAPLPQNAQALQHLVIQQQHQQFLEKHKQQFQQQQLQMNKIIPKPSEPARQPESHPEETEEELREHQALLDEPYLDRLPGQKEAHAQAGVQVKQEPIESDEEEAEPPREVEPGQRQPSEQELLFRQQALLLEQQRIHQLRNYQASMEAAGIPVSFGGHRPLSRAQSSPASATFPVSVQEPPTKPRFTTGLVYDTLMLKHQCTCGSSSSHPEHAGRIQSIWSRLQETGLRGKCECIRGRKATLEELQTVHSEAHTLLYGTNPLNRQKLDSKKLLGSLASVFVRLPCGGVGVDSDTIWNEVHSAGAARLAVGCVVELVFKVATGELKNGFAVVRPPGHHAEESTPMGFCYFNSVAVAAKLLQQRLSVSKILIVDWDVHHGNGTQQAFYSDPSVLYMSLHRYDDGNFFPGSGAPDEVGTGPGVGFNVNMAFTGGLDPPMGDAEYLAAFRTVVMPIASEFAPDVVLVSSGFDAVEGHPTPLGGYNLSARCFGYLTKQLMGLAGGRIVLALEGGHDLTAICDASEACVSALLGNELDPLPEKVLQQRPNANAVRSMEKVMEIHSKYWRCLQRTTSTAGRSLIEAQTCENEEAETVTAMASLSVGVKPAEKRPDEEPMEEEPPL
Sequence of Histone deacetylase 7 (Homo sapiens) (Q8WUI4 whole entry): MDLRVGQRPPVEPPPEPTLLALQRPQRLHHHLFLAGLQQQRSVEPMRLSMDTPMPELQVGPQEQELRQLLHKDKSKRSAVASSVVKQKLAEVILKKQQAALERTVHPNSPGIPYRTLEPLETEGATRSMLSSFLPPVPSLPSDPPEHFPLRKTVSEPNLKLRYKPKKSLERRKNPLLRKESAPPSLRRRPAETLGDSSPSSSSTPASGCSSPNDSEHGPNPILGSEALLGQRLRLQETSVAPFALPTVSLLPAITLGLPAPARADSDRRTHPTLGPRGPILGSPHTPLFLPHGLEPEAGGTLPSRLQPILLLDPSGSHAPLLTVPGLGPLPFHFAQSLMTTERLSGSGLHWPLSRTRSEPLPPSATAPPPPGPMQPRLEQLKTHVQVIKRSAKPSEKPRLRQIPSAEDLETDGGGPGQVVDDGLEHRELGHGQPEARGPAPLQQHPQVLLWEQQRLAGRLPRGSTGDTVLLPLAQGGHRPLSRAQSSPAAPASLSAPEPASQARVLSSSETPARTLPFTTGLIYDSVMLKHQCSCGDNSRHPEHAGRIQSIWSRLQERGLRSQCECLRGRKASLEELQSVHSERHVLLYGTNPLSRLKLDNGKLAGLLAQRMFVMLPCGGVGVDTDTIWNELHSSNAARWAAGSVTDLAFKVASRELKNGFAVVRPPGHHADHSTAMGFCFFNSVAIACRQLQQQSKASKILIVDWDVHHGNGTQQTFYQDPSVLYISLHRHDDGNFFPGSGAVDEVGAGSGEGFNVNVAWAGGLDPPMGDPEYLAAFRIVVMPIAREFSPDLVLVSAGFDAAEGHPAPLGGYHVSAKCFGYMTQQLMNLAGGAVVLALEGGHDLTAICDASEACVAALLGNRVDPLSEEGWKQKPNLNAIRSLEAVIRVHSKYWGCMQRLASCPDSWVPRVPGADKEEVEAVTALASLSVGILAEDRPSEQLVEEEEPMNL
Sequence of Histone deacetylase 5 (Q9UQL6 whole entry): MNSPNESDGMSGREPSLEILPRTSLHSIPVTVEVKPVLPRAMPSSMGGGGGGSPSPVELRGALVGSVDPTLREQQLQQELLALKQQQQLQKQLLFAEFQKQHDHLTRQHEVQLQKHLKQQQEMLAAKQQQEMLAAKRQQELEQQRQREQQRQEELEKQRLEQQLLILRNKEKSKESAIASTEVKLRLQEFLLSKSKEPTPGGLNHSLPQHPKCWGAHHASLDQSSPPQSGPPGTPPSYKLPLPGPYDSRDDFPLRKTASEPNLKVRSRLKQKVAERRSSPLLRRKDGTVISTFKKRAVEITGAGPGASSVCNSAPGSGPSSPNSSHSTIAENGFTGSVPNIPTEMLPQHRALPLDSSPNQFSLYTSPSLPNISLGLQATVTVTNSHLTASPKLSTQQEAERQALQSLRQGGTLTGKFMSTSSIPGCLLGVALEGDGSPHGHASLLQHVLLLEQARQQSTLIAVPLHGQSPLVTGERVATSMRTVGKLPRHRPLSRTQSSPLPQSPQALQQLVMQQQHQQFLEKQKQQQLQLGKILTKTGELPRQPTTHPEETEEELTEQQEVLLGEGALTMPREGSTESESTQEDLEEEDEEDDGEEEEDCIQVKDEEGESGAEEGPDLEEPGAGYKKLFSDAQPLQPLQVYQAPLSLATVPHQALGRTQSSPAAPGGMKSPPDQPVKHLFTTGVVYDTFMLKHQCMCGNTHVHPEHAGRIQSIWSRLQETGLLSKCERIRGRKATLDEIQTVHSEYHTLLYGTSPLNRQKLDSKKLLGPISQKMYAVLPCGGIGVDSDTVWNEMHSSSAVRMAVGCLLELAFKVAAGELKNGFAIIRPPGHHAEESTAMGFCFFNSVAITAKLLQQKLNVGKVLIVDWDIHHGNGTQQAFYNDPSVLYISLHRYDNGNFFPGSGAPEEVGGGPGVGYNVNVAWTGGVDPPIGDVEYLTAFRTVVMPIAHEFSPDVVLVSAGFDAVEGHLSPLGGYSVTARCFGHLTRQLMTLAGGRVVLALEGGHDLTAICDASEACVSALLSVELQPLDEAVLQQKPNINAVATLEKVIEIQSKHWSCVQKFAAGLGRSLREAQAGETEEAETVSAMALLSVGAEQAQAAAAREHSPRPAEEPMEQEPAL
Sequence of Histone deacetylase 11 (Homo sapiens) (Q96DB2 whole entry): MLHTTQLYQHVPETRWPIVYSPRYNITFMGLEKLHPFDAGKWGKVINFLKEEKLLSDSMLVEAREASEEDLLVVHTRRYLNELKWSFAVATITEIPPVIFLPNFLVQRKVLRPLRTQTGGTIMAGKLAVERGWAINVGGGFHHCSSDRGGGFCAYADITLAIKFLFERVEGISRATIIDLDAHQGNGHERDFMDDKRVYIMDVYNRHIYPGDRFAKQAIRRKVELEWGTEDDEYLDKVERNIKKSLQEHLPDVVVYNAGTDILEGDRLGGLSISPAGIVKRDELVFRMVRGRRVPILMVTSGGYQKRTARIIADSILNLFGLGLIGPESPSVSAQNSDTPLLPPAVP

**Q.** Which inhibition (Histone deacetylase 9) does the source give for `COc1ccc(N(C)c2nc(C)nc3ccccc23)cc1OCCCC(=O)NO` here?
**A.** inactive

**Q.** And the Activity (Mus musculus [1])?
**A.** Non-toxic

**Q.** What about the inhibition [2] of the same molecule?
**A.** inactive

**Q.** What about the Activity [3] of the same molecule?
**A.** 76.3%

**Q.** And the pIC50 (K562)?
**A.** 7.20

**Q.** And the pIC50 (HT-29)?
**A.** 7.14

**Q.** What about the Activity (MV4-11) of the same molecule?
**A.** 55%

**Q.** What about the Activity (Mus musculus [4]) of the same molecule?
**A.** -3.8%

**Q.** And the Activity (Mus musculus [5])?
**A.** -5.7%

**Q.** What about the Cmax [6] of the same molecule?
**A.** 2210 ng/mL

**Q.** And the Vdss (Rattus norvegicus)?
**A.** 154.811 L/kg

**Q.** And the Activity [7]?
**A.** 60.4%

**Q.** What about the Activity (Ramos [8]) of the same molecule?
**A.** 58.79%

**Q.** And the inhibition (Ramos [9])?
**A.** Dose-dependent effect

**Q.** What about the inhibition (Histone deacetylase 5) of the same molecule?
**A.** inactive

**Q.** What about the pIC50 (A2780) of the same molecule?
**A.** 7.34

**Q.** And the pIC50 (Histone deacetylase 4)?
**A.** < 5.00

**Q.** And the inhibition [10]?
**A.** inactive

**Q.** What about the Cmax [11] of the same molecule?
**A.** 238 ng/mL

**Q.** What about the Activity (Mus musculus [12]) of the same molecule?
**A.** Non-toxic
